Laboratory results as given in patent publication US11111222B2, “Hydroxyeicosatrienoic acid compounds and their use as therapeutic agents” (THE REGENTS OF THE UNIVERSITY OF MICHIGAN, priority 2016, dated 2021).

What was measured:
[1] = tested on: VASP (serine 157); assay: VASP phosphorylation in human platelets; assay type: cell-based; details: DGLA 10 μM, 1 min; vs DMSO
Protocol: Washed platelets were treated with PUFA or PUFA metabolite (12(S)-HETrE or compound IIc) for one minute, then directly lysed in 5× Laemmeli sample buffer (1.5 M Tris-HCl, pH 6.8, glycerol, 5% β-mercaptoethanol, 10% sodium dodecyl sulfate (SDS), and 1% bromophenol blue). The samples were boiled for five minutes and then run on a 10% SDS-PAGE gel. The levels of total and phospho-VASP (serine 157) were quantified by Western Blot using an Odyssey imaging system (LI-CoR).

[2] = tested on: thrombus formation (platelet and fibrin) in cremaster arterioles; assay: Laser-induced cremaster arteriole thrombosis model; assay type: in vivo, mouse; details: vs vehicle
Protocol: Wild type (WT) or 12-LOX^−/− mice (12 weeks of age) were anesthetized by intraperitoneal injection of ketamine/xylazine (100 mg/kg) prior to the exposure of the cremaster muscle arterioles under a dissecting microscope with constant perfusion of preheated bicarbonate-buffered saline (Reheman et al., J Thromb Haemost 3:875-883, 2005; Reheman et al., Blood 113:1809-1817, 2009; Wang et al., J Clin Invest 124:4281-4293, 2014). Anti-platelet (DyLight 488 anti-GPIb, 1 μg/g) and anti-fibrin (Alexa Fluor 647, 0.3 μg/g) antibodies were administered via jugular vein catheter prior to intravital microscopy. DGLA (50 mg/kg) or DMSO (vehicle control) were dissolved in a formulation of 5% DMSO and 45% PEG300 in sterile 1×PBS and then intravenously injected into mice 10 minutes prior to induction of thrombosis. 12(S)-HETrE (6 mg/kg) or equal volume of DMSO (vehicle control) was also intravenously injected into mice 10 minutes prior to induction of thrombosis. Multiple independent thrombi were induced in the arterioles (30-50 μm diameter) in each mouse by a laser ablation system (Ablate! photoablation system; Intelligent Imaging Innovations, Denver, Colo., USA). Images of thrombus formation were acquired in real-time under 63× water-immersion objective with a Zeiss Axio Examiner Z1 fluorescent microscope equipped with solid laser launch system (LaserStack; Intelligent Imaging Innovations) and high-speed sCMOS camera. All captured images were analyzed on Slidebook (Intelligent Imaging Innovations Inc., Denver, Colo., USA).

[3] = tested on: platelets; details: cited from earlier work
[4] = tested on: Rap1; assay: Rap1 activation in washed platelets (Rap1-GTP pull-down, Western blot); assay type: cell-based, mouse; details: 10 μM DGLA, PAR4-AP 50, 100, 200 μM
Protocol: Following 1 minute of stimulation platelets were lysed with 2× platelet lysis buffer (100 mM Tris HCl, pH 7.4, 150 mM NaCl, 2% IGEPAL, 1% sodium deoxycholate, and 0.05% SDS) containing protease and phosphatase inhibitors. The cytoskeleton was pelleted by centrifugation at 14000×g for 7 minutes at 4° C. Active Rap1 was selectively captured from the supernatant by incubating GST-tagged Rap1 binding domain of RalGDS conjugated to glutathione sepharose beads for one hour on a nutator at 4° C. The beads were then washed 5 times with IP buffer and resuspended in 2× Laemmeli reducing buffer (62.5 mM Tris-HCl, pH 6.8, 2% SDS, 25% glycerol, 0.01% bromophenol blue, 5% β-mercaptoethanol). The samples were boiled for 10 minutes and then loaded onto a 10% SDS-polyacrylamide gel electrophoresis (PAGE) gel. Western blots were performed using a Rap1 antibody and quantified with a LI-COR imager.

[5] = tested on: washed platelets from WT or 12-LOX−/− mice; assay: Platelet aggregation, washed murine platelets (lumi-aggregometer); assay type: cell-based, mouse; details: 10 μM PUFA, 10 min
Protocol: The 12-LOX null C57BL/6 (12-LOX^−/−) mice were generated using homozygous breeding pairs and wild-type (WT) C57BL/6 ([…]) mice were purchased (Jackson Laboratory). […] Mouse blood was diluted with equal volumes of Tyrode's buffer (10 mM HEPES, 11.9 mM sodium bicarbonate, 127.2 mM sodium chloride, 5 mM potassium chloride, 0.4 mM sodium phosphate monobasic, 1 mM magnesium chloride, and 5 mM D-glucose) and centrifuged at 200×g. Platelet-rich-plasma (PRP) was transferred to a tube containing 10× acid citrate dextrose solution (ACD) (2.5% sodium citrate, 1.5% citric acid, and 2% D-glucose) and apyrase (0.02 U/mL), and centrifuged at 2000×g. Platelet count was adjusted to 3×10^8 platelets/mL with Tyrode's buffer for all studies.
A lumi-aggregometer (Chrono-log model 700D) was used to measure platelet aggregation under stirring conditions (1100 rpm) at 37° C. Prior to agonist stimulation platelets were incubated with a preselected PUFA or oxylipin for 10 minutes.

[6] = WT mice, 50 mg/kg i.v. 10 min before laser injury

CCCCC/C=C\C/C=C\C/C=C\CCCCCCC(=O)O [DGLA, Dihomo-γ-linolenic acid]
VASP phosphorylation (S157) [1]: enhanced VASP phosphorylation | fibrin accumulation in thrombi ([2]; 12-LOX−/− mice, 50 mg/kg i.v.): did not differ | platelet accumulation in thrombi ([2]; 12-LOX−/− mice, 50 mg/kg i.v.): did not differ | fibrin accumulation at the site of injury [2, 6]: but not fibrin accumulation | platelet accumulation at the site of injury [2, 6]: significant reduction in platelet | platelet aggregation ex vivo ([3]; literature (Farrow and Willis 1975; Kernoff 1977; Willis 1974)): inhibit platelet aggregation ex vivo | ex vivo aggregation of platelets after dosing ([3]; platelets from humans, baboons, rabbits and rats that received daily oral doses): significant reduction in ex vivo aggregation | Rap1 activation (Rap1-GTP) ([4]; 12-LOX−/− mouse platelets): unable to inhibit Rap1 activation | Rap1 activation (Rap1-GTP) ([4]; WT mouse platelets): inhibited Rap1 activation at all concentrations of PAR4-AP tested | platelet aggregation ([5]; 12-LOX−/− mouse platelets, EC80 PAR4-AP (200 μM) or collagen (2 or 5 μg/mL), vs vehicle): failed to inhibit platelet aggregation | platelet aggregation ([5]; WT mouse platelets, EC80 PAR4-AP (100 μM) or collagen (5 μg/mL), vs DMSO): significant inhibition of aggregation
